Values joined by “and” are separate entries in the source; they are usually repeats but may differ in a detail not shown here. Equal values may be shown once. Where a name gives a salt, the structure may show the parent alone. Read-outs that look alike come from different tables or passages of the source.
Key:
human β2-AR = human β2-AR (Homo sapiens (Human), UniProt P07550)
rat cardiomyocyte = test: Rat cardiomyocyte contractility model; type: cell-based
β1-AR = β1-AR (Rattus norvegicus (Rat), UniProt P18090); conditions: read-out: Ki β1; Ki ± SEM, n=3
U118 cells = conditions: [3H]-thymidine incorporation
1321N1 cells [1] = test: Cell cycle distribution by flow cytometry in 1321N1 cells; conditions: 20 hours
[2] = IV 5 mg/kg
β2-AR = conditions: previously reported; cited from earlier work
1321N1 cells [3] = test: Inhibition of mitogenesis, [3H]-thymidine incorporation in 1321N1 cells; type: cell-based, human
[4] = Brain and plasma distribution after single IV administration in rats; type: in vivo, male Sprague-Dawley rats
Description: An overview of the research study design for evaluating the brain-to-plasma distribution of [^3H]
(specific activity 57 Ci/mmol); vehicle was sterile saline, 0.9% sodium chloride, USP. Dose formulations were prepared on the day of the study. The amount of radioactivity in the dose formulation was determined by liquid scintillation. The study lasted for an hour and radioactivity levels in plasma and brain tissue were evaluated at the conclusion of the study. Approximately 5 mls of whole blood was collected. Blood samples were collected via cardiac puncture, transferred into a tube containing K3EDTA as the anticoagulant and kept on wet ice until processed to plasma. To generate plasma, samples were centrifuged within 15 minutes of collection at 2,500 RPM for 15 minutes at room temperature. Plasma was divided equally into three labeled cryovials and stored on ample dry ice until transferred to a freezer set at ≤−20° C. for storage until analysis. Duplicate aliquots were weighed and then combined with scintillation cocktail. The [^3H] radioactivity was determined on a liquid scintillation counter. Brain samples were snap frozen in liquid nitrogen and stored at ≤−70° C. until analysis. Whole brain tissue was homogenized and the weight of the homogenate was determined. Duplicate aliquots from the homogenate were weighed, solubilized and then combined with scintillation cocktail. The [^3H] radioactivity was determined on a liquid scintillation counter.

[5] = rat, IV 5 mg/kg, 5 min, listed as [^3H]—(R,R)-methoxyfenoterol
[6] = rat, IV 5 mg/kg, 60 min, listed as [^3H]—(R,R)-methoxyfenoterol

β1-AR, sequence (P18090 whole entry): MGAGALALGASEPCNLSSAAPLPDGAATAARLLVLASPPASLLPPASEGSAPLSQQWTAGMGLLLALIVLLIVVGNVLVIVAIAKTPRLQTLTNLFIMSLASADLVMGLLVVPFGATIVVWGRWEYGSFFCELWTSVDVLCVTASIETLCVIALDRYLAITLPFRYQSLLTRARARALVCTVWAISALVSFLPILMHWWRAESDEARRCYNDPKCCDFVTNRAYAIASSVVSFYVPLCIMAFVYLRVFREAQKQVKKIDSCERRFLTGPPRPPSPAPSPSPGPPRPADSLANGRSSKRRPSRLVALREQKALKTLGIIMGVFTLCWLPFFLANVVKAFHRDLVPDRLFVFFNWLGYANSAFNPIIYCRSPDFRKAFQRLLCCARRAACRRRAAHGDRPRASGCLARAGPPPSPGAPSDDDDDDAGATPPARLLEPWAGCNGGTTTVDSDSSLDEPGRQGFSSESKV

C[C@H](Cc1cccc2ccccc12)NC[C@@H](O)c1cc(O)cc(O)c1.O=C(O)/C=C/C(=O)O (racemic) [(S,R)-5, (S,R)-(+)-5-{1-hydroxy-2-[1-methyl-2-(1-naphthyl)ethylamino]ethyl}-1,3-benzenediol Fumarate]
affinity for the β2-AR weaker than (R,R)-5 (human β2-AR): 7 fold

C[C@@H](Cc1ccc(O)cc1)NC[C@@H](O)c1cc(O)cc(O)c1 (racemic) [(S,S)-1, (S,S)-(±)-Fenoterol]
EC50 (rat cardiomyocyte): 55 µM

O=C(O)/C=C/C(=O)O.Oc1cc(O)cc([C@@H](O)CNCCc2ccccc2)c1 [(R)-7, (R)-(−)-5-(1-Hydroxy-2-phenethylaminoethyl)-1,3-benzenediol fumarate]
Ki (β1-AR): 42.5 ± 3.47 µM | Kiβ2 value higher than (R,S)-3 (human β2-AR; relative to (R,S)-3): 32%

C[C@H](Cc1ccc(O)cc1)NC[C@H](O)c1cc(O)cc(O)c1 [(R,R)-1, (R,R)-(−)-Fenoterol]
IC50 higher than the value calculated in 1321N1 cells (U118 cells): 50 fold | % Phase Distribution G2 (1321N1 cells [1]; 0.1 nM): 1.8% | % Phase Distribution G1 (1321N1 cells [1]; 10.0 nM): 76.0% | % Phase Distribution G2 (1321N1 cells [1]; 10.0 nM): 2.1% | % Phase Distribution G2 (1321N1 cells [1]; 1000 nM): 0.7%

COc1ccc(C[C@@H](C)NC[C@H](O)c2cc(O)cc(O)c2)cc1.O=C(O)/C=C/C(=O)O [(R,R)-2, (R,R)-(−)-1-p-Methoxyphenyl-2-(β-3′,5′-dihydroxy-phenyl-β-oxy)ethylamino-propane Fumarate]
plasma concentration, individual rat ([2]; 300 min, listed as (R,R)-methoxyfenoterol): 0.06 ug/ml and 0.07 ug/ml (3×) and 0.09 ug/ml | systemic exposure (AUC) compared to (R,R)-fenoterol ([2]; rat): significantly higher | B ([2]; rat, two-compartment open model): 0.3900 µg/mL

C[C@@H](Cc1cccc2ccccc12)NC[C@H](O)c1cc(O)cc(O)c1.O=C(O)/C=C/C(=O)O [(R,S)-5, (R,S)-(−)-5-{1-hydroxy-2-[1-methyl-2-(1-naphthyl)ethylamino]ethyl}-1,3-benzenediol Fumarate]
plasma concentration, individual rat ([2]; 240 min, listed as (R,S)-naphthylfenoterol, Fumarate): 0.11 ug/ml (3×) and 0.13 ug/ml (2×) | plasma concentration, individual rat ([2]; 300 min, listed as (R,S)-naphthylfenoterol, Fumarate): 0.10 ug/ml (2×) and 0.11 ug/ml (2×) and 0.12 ug/ml | systemic exposure (AUC) compared to (R,R)-fenoterol ([2]; rat): significantly higher | plasma concentration, Average ([2]; rat, 15 min): 680 ng/mL | plasma concentration, Average ([2]; rat, 30 min): 430 ng/mL | plasma concentration, Average ([2]; rat, 60 min): 340 ng/mL | plasma concentration, Average ([2]; rat, 120 min): 240 ng/mL | plasma concentration, Average ([2]; rat, 240 min): 120 ng/mL | plasma concentration, Average ([2]; rat, 300 min): 110 ng/mL | plasma concentration, Average ([2]; rat, 360 min): 90 ng/mL

Oc1cc(O)cc([C@H](O)CNCCc2ccccc2)c1 [(S)-7, (S)-(+)-5-(1-hydroxy-2-phenethylaminoethyl)-1,3-benzenediol Fumarate]
Ki (β1-AR): 52.2 ± 3.01 µM

CC(C)NCC(O)c1ccc(O)c2[nH]c(=O)ccc12 (stereo not shown) [Compound 50]
Ki β1/Ki β2 ratio (β2-AR): 1.7

NCC(O)c1ccc(O)c2[nH]c(=O)ccc12 (stereo not shown) [Compound 51]
Ki β1/Ki β2 ratio (β2-AR): 1.3

Cc1ccc(OCC(O)C(C)NC(C)C)c2c1CCC2 (stereo not shown) [ICI 118-551]
shift of the (R,R)-fenoterol dose response curve (1321N1 cells [3]; 1 nM and 3 nM): parallel rightward shift | pA2 against inhibitory effect of (R,R)-fenoterol (1321N1 cells [3]; [3H]-thymidine incorporation, 1321N1 cells): 8.9 | slope of competitive inhibition (1321N1 cells [3]; [3H]-thymidine incorporation, versus (R,R)-fenoterol): −1.3±0.3

[3H]COc1ccc(C[C@@H](C)NC[C@H](O)c2cc(O)cc(O)c2)cc1 [[^3H]-(R,R)-methoxyfenoterol, [^3H]—(R,R)-methoxyfenoterol chloride]
decrease of plasma level ([4]; from 5 minutes to 60 minutes): 62% | passage through the blood brain barrier ([4]; rat, IV): pass through the blood brain barrier | Brain level, Mean ([4]; rat, IV 5 mg/kg, 5 min): 0.92 μg-equiv/g | Percent of Dose in Brain, Mean ([4]; rat, IV 5 mg/kg, 5 min): 0.14% | Plasma level, Mean ([4]; rat, IV 5 mg/kg, 5 min): 3.25 μg-equiv/ml | Brain level, Mean [4, 5]: 0.92±0.10 μg-equiv/g | Plasma level, Mean [4, 5]: 3.25±0.15 μg-equiv/ml | Brain level, Mean ([4]; rat, IV 5 mg/kg, 15 min): 0.80 μg-equiv/g | Percent of Dose in Brain, Mean ([4]; rat, IV 5 mg/kg, 15 min): 0.12% | Plasma level, Mean ([4]; rat, IV 5 mg/kg, 15 min): 1.79 μg-equiv/ml | Brain level, Mean ([4]; rat, IV 5 mg/kg, 30 min): 0.72 μg-equiv/g | Percent of Dose in Brain, Mean ([4]; rat, IV 5 mg/kg, 30 min): 0.11% | Plasma level, Mean ([4]; rat, IV 5 mg/kg, 30 min): 1.53 μg-equiv/ml | Brain level, Mean ([4]; rat, IV 5 mg/kg, 60 min): 0.70 μg-equiv/g | Percent of Dose in Brain, Mean ([4]; rat, IV 5 mg/kg, 60 min): 0.11% | Plasma level, Mean ([4]; rat, IV 5 mg/kg, 60 min): 1.24 μg-equiv/ml | Brain level, Mean [4, 6]: 0.70±0.37 μg-equiv/g | Plasma level, Mean [4, 6]: 1.24±0.43 μg-equiv/ml | percent dose found in the brain, any given animal ([4]; rat, IV 5 mg/kg, over 60 minutes): no more than 0.17%

(R,R)-TA-2005 [Compound 49]
Ki (β2-AR): 0.012 µM | Ki β1/Ki β2 ratio (β2-AR): 53

From patent US10925840B2, “Use of fenoterol and fenoterol analogues in the treatment of glioblastomas and astrocytomas” (priority 2010, dated 2021)
